Test results from ChEMBL document CHEMBL1201862, “PubChem BioAssay data set” (2004).
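Method: 48-hour compound exposure of cells in 96-well plates, five concentrations, linear interpolation of endpoints. Here, GI50 denotes the concentration required for 50% inhibition of growth.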 The source made the active and inactive calls. No stated cut-off is given here; in the data, active = GI50 up to about 1.1 µM and inactive = higher.

Tests used:
Assay in all cases: NCI tumour cell line growth inhibition, 48 h
786-0 = test system: 786-0
A498 = test system: A498
A549 = test system: A549
ACHN = test system: ACHN
CAKI-1 = test system: CAKI-1
CCRF-CEM = test system: CCRF-CEM
COLO 205 = test system: COLO 205
DLD-1 = test system: DLD-1
DMS-114 = test system: DMS-114
DMS-273 = test system: DMS-273
EKVX = test system: EKVX
HCC 2998 = test system: HCC 2998
HCT-116 = test system: HCT-116
HCT-15 = test system: HCT-15
HL-60 = test system: HL-60
HOP-18 = test system: HOP-18
HOP-62 = test system: HOP-62
HOP-92 = test system: HOP-92
HT-29 = test system: HT-29
IGROV-1 = test system: IGROV-1
K562 = test system: K562
KM-20L2 = test system: KM-20L2
KM12 = test system: KM12
LOX IMVI = test system: LOX IMVI
LXFL 529 = test system: LXFL 529
M14 = test system: M14
M19-MEL = test system: M19-MEL
MOLT-4 = test system: MOLT-4
Malme-3M = test system: Malme-3M
NCI-H226 = test system: NCI-H226
NCI-H23 = test system: NCI-H23
NCI-H460 = test system: NCI-H460
NCI-H522 = test system: NCI-H522
OVCAR-3 = test system: OVCAR-3
OVCAR-4 = test system: OVCAR-4
OVCAR-5 = test system: OVCAR-5
OVCAR-8 = test system: OVCAR-8
RPMI-8226 = test system: RPMI-8226
RXF 393 = test system: RXF 393
RXF 631 = test system: RXF 631
SF-268 = test system: SF-268
SF-295 = test system: SF-295
SF-539 = test system: SF-539
SK-MEL-28 = test system: SK-MEL-28
SK-MEL-2 = test system: SK-MEL-2
SK-MEL-5 = test system: SK-MEL-5
SK-OV-3 = test system: SK-OV-3
SN12C = test system: SN12C
SNB-19 = test system: SNB-19
SNB-75 = test system: SNB-75
SNB-78 = test system: SNB-78
SR = test system: SR
SW-620 = test system: SW-620
TK-10 = test system: TK-10
U-251 = test system: U-251
UACC-257 = test system: UACC-257
UACC-62 = test system: UACC-62
UO-31 = test system: UO-31
XF498 = test system: XF498

## C[C@]12CCc3nonc3C1CC[C@@H]1C2CC[C@]2(C)C(=O)/C(=N\O)CC12 (stereo partly drawn)
786-0
  GI50: > 100 µM (inactive)
A498
  GI50: > 100 µM (inactive)
A549
  GI50: > 100 µM (inactive)
ACHN
  GI50: > 100 µM (inactive)
CAKI-1
  GI50: > 100 µM (inactive)
CCRF-CEM
  GI50: > 100 µM (inactive)
COLO 205
  GI50: 54.3 µM (inactive)
DLD-1
  GI50: > 100 µM (inactive)
DMS-114
  GI50: > 100 µM (inactive)
DMS-273
  GI50: > 100 µM (inactive)
EKVX
  GI50: > 100 µM (inactive)
HCC 2998
  GI50: > 100 µM (inactive)
HCT-116
  GI50: > 100 µM (inactive)
HCT-15
  GI50: > 100 µM
HL-60
  GI50: 1.03 µM (active)
HOP-18
  GI50: > 100 µM (inactive)
HOP-62
  GI50: > 100 µM (inactive)
HOP-92
  GI50: > 100 µM (inactive)
HT-29
  GI50: > 100 µM (inactive)
IGROV-1
  GI50: > 100 µM (inactive)
K562
  GI50: > 100 µM (inactive)
KM-20L2
  GI50: > 100 µM (inactive)
KM12
  GI50: > 100 µM (inactive)
LOX IMVI
  GI50: 46 µM (inactive)
LXFL 529
  GI50: 77.4 µM (inactive)
M14
  GI50: > 100 µM (inactive)
M19-MEL
  GI50: > 100 µM (inactive)
MOLT-4
  GI50: > 100 µM (inactive)
Malme-3M
  GI50: > 100 µM (inactive)
NCI-H226
  GI50: > 100 µM (inactive)
NCI-H23
  GI50: > 100 µM (inactive)
NCI-H460
  GI50: > 100 µM (inactive)
NCI-H522
  GI50: 4.66 µM (inactive)
OVCAR-3
  GI50: > 100 µM (inactive)
OVCAR-4
  GI50: 48.2 µM (inactive)
OVCAR-5
  GI50: > 100 µM (inactive)
OVCAR-8
  GI50: > 100 µM (inactive)
RPMI-8226
  GI50: > 100 µM (inactive)
RXF 393
  GI50: 3.87 µM (inactive)
RXF 631
  GI50: > 100 µM (inactive)
SF-268
  GI50: > 100 µM (inactive)
SF-295
  GI50: > 100 µM (inactive)
SF-539
  GI50: > 100 µM (inactive)
SK-MEL-28
  GI50: > 100 µM (inactive)
SK-MEL-2
  GI50: > 100 µM (inactive)
SK-MEL-5
  GI50: > 100 µM (inactive)
SK-OV-3
  GI50: > 100 µM (inactive)
SN12C
  GI50: > 100 µM (inactive)
SNB-19
  GI50: > 100 µM (inactive)
SNB-75
  GI50: 28.1 µM (inactive)
SNB-78
  GI50: > 100 µM (inactive)
SR
  GI50: > 100 µM (inactive)
SW-620
  GI50: > 100 µM (inactive)
TK-10
  GI50: > 100 µM (inactive)
U-251
  GI50: > 100 µM (inactive)
UACC-257
  GI50: > 100 µM (inactive)
UACC-62
  GI50: > 100 µM (inactive)
UO-31
  GI50: > 100 µM (inactive)
XF498
  GI50: > 100 µM (inactive)

## O=S(O)CCCCSSCCCCSSCCCCS(=O)O
786-0
  GI50: > 100 µM (inactive)
A498
  GI50: 96.6 µM (inactive)
A549
  GI50: 34 µM (inactive)
ACHN
  GI50: 40.9 µM (inactive)
CAKI-1
  GI50: 95.3 µM (inactive)
CCRF-CEM
  GI50: 5.9 µM (inactive)
COLO 205
  GI50: 22.6 µM (inactive)
DLD-1
  GI50: 86.1 µM (inactive)
DMS-114
  GI50: 25.5 µM (inactive)
DMS-273
  GI50: 42.6 µM (inactive)
EKVX
  GI50: 6.38 µM (inactive)
HCC 2998
  GI50: > 100 µM (inactive)
HCT-116
  GI50: > 100 µM (inactive)
HCT-15
  GI50: 42.7 µM
HL-60
  GI50: 3.25 µM (inactive)
HOP-18
  GI50: 70.1 µM (inactive)
HT-29
  GI50: > 10 µM (inactive)
IGROV-1
  GI50: > 100 µM (inactive)
K562
  GI50: 15 µM (inactive)
KM-20L2
  GI50: > 100 µM (inactive)
KM12
  GI50: 76 µM (inactive)
LOX IMVI
  GI50: 12.8 µM (inactive)
LXFL 529
  GI50: 11.1 µM (inactive)
M14
  GI50: 11.2 µM (inactive)
M19-MEL
  GI50: 5.53 µM (inactive)
MOLT-4
  GI50: 0.851 µM (active)
Malme-3M
  GI50: 15.8 µM (inactive)
NCI-H23
  GI50: 36 µM (inactive)
NCI-H460
  GI50: 53.1 µM (inactive)
NCI-H522
  GI50: 13 µM (inactive)
OVCAR-3
  GI50: 33.9 µM (inactive)
OVCAR-4
  GI50: 16 µM (inactive)
OVCAR-5
  GI50: > 100 µM (inactive)
OVCAR-8
  GI50: 18.9 µM (inactive)
RXF 393
  GI50: 27.2 µM (inactive)
RXF 631
  GI50: 33.7 µM (inactive)
SF-268
  GI50: 27.4 µM (inactive)
SF-295
  GI50: 30.1 µM (inactive)
SF-539
  GI50: 66.2 µM (inactive)
SK-MEL-28
  GI50: 20.7 µM (inactive)
SK-MEL-2
  GI50: 24.9 µM (inactive)
SK-MEL-5
  GI50: 10.7 µM (inactive)
SK-OV-3
  GI50: > 100 µM (inactive)
SN12C
  GI50: 42.7 µM (inactive)
SNB-19
  GI50: > 100 µM (inactive)
SNB-75
  GI50: 6.31 µM (inactive)
SNB-78
  GI50: 15.7 µM (inactive)
SW-620
  GI50: 24.4 µM (inactive)
TK-10
  GI50: 26.4 µM (inactive)
U-251
  GI50: > 100 µM (inactive)
UACC-257
  GI50: 10.1 µM (inactive)
UACC-62
  GI50: 12.1 µM (inactive)
UO-31
  GI50: 29 µM (inactive)
XF498
  GI50: 6.41 µM (inactive)
